Experimental findings from patent US8952036B2, “Benzoic acid derivative MDM2 inhibitor for the treatment of cancer” (Amgen Inc., priority 2013, dated 2015) are described below.

In general, hepatocyte CLint refers to the rate of metabolic loss divided by the concentration.

One data set relates to CYP3A4. Conditions: human, 48 h; for CYP3A4 mRNA induction: hepatocytes. The source says:
(§1) Human Hepatocyte CYP1A2, CYP2B6, and CYP3A4 Induction Assay
(§2) Materials. […] Insulin-transferrin-selenium supplement (ITS), penicillin-streptomycin-L-glutamine supplement (PSG), fetal bovine serum (FBS), phosphate-buffered saline (PBS), cryopreserved hepatocyte recovery medium (CHRM), and three individual-donor lots of cryopreserved adult human hepatocytes were obtained from Life Technologies (Grand Island, N.Y.). Collagen I-precoated 24-well plates and hydroxybupropion were acquired from Becton Dickinson Labware (Bedford, Mass.). Branched DNA (b-DNA) probe sets for human CYP1A2, CYP2B6, CYP3A4, and 18S rRNA and the Panomics Discovery XL Kit were purchased from Affymetrix Inc. (Santa Clara, Calif.).
In vitro Methods. […] Individual lots were plated in collagen-coated 24-well plates with approximately 0.38×10^6 cells/well. […] After the attachment period, the plating medium and unattached cells were removed by aspiration and 37° C. HMM was added to each well (0.5 mL/well), and the cells were incubated overnight. On Day 2, the medium was aspirated and fresh 37° C. HMM was reapplied to the cells for an overnight acclimation period. […] The Example compounds to be tested were prepared in DMSO stock solutions resulting in final incubation concentrations of 0.1% DMSO. Example compound treatment was maintained for a total of 48 hours. On Day 5, the medium was aspirated, and the hepatocytes were gently washed one time with KHB (37° C., pH 7.4). The KHB was removed, and a second application of KHB was administered (0.5 mL/well). The hepatocytes were placed back into the incubator and allowed to acclimate to the KHB for 10 minutes. P450 enzyme activities were subsequently determined by the addition of marker substrates phenacetin (100 μM, CYP1A2 probe substrate, 30-minute incubation) bupropion hydrochloride (100 μM, CYP2B6 probe substrate, 20-minute incubation), and testosterone (200 μM, CYP3A4 probe substrate, 14-minute incubation) which were dissolved in KHB (37° C., pH 7.4, 0.5 mL/well). After the substrate incubation periods, the buffers were collected and stored at −80° C. until analyzed. Hepatocytes used for mRNA analysis were washed once in PBS (0.5 mL/well, 25° C., containing calcium and magnesium) and protocol-prepared b-DNA lysis buffer was added to each well (0.5 mL/well). The hepatocytes were lysed by gently pipetting the lysis buffer up and down five times, and the plates were stored at −80° C. until analysis.
P450 mRNA Analysis. CYP1A2, CYP2B6, and CYP3A4 mRNA content was determined with branched DNA (b-DNA) signal amplification technology using the Panomics Discover XL Kit with assays performed according to the manufacturer's instructions. b-DNA probe sets containing capture extender, label extender, and blocking probes for human CYP1A2, CYP2B6, CYP3A4, and 18S rRNA were purchased from Affymetrix Inc. Plate washing steps were performed on an Elx405 automated microplate washer (BioTek Instruments Inc., Winooski, Vt.), and luminescence was analyzed on a Luminoskan Ascent microplate luminometer (Thermo Lab Systems, Helsinki, Finland). P450 mRNA levels were normalized to the mRNA levels of the housekeeping gene 18S rRNA.
(§3) Data Reporting. For each P450 isoform for mRNA analysis, fold increases over vehicle control (with vehicle control set to 1.0) were calculated for positive controls and each treatment group for the Example compounds.

The test system of the next data set is CYP1A2, CYP2B6 or CYP3A4. Briefly: Human Hepatocyte CYP1A2, CYP2B6, and CYP3A4 Induction Assay (summary). It is filed as in vitro ADME. Conditions: human hepatocytes, mRNA.
Text: as §1, §2
In vitro Methods. […] Individual lots were plated in collagen-coated 24-well plates with approximately 0.38×10^6 cells/well. […] After the attachment period, the plating medium and unattached cells were removed by aspiration and 37° C. HMM was added to each well (0.5 mL/well), and the cells were incubated overnight. On Day 2, the medium was aspirated and fresh 37° C. HMM was reapplied to the cells for an overnight acclimation period. […] The Example compounds to be tested were prepared in DMSO stock solutions resulting in final incubation concentrations of 0.1% DMSO. Example compound treatment was maintained for a total of 48 hours. […] P450 enzyme activities were subsequently determined by the addition of marker substrates phenacetin (100 μM, CYP1A2 probe substrate, 30-minute incubation) bupropion hydrochloride (100 μM, CYP2B6 probe substrate, 20-minute incubation), and testosterone (200 μM, CYP3A4 probe substrate, 14-minute incubation) which were dissolved in KHB (37° C., pH 7.4, 0.5 mL/well). After the substrate incubation periods, the buffers were collected and stored at −80° C. until analyzed. […]
as §3

In data set [1] the test system is Cryopreserved human hepatocytes. Briefly: Human Hepatocyte Intrinsic Clearance Assay. Conditions: for human hepatocyte clearance (comparison): comparison between Examples, in words.
Description: (§4) Cryopreserved human hepatocytes pooled from 20 donors (Celsis-In Vitro Technologies, Baltimore, Md.) were used to determine the intrinsic clearance of the Example compounds. […] At 0, 5, 15, 30, 60 and 90 minutes, aliquots of incubation mixture were removed from the incubator, and quenched with acetonitrile containing 0.1% (v/v) formic acid and internal standard (7-hydroxy-4-trifluoromethylcoumarin). Samples were then centrifuged at 5700 rpm (6100 g) at 4° C. for 10 minutes. Supernatants were transferred to a sample plate, mixed with equal volume of water containing 0.1% formic acid, and analyzed using LC-MS/MS.
(§5) The LC-MS/MS system for sample analysis consisted of a reverse phase UHPLC (Shimadzu Model Nexera LC-30AD, Shimadzu Scientific Instruments, Inc, Columbia, Md.) interfaced with an API4000 triple quadruple mass spectrometer operating in negative ion mode (Applied Biosystems, Inc., Foster City, Calif.). Chromatographic separation was achieved using a Phenomenex Kinetex Luna C18 column (Phenomenex, Torrance, Calif.) (2×50 mm, 2.6 μm) maintained at 55° C. with a mobile phase flow rate of 1.2 mL/min. The mobile phase consisted of 0.1% formic acid in water (A) and 0.1% formic acid in acetonitrile (B).
The nature of data set [2]: Human Hepatocyte Intrinsic Clearance Assay. Conditions: human, cryopreserved human hepatocytes pooled from 20 donors.
Description: as §4, §5

The structures appear in SMILES notation. “Also recorded” adds a separate entry of the source. Like-named read-outs stand apart in the source and are kept apart here.

On to `COc1cc(NC(=O)C[C@@]2(C)C[C@H](c3cccc(Cl)c3)[C@@H](c3ccc(Cl)c(F)c3)N([C@H](CS(=O)(=O)C(C)(C)C)C3CC3)C2=O)ccc1C(=O)O` [Example 5, 4-(2-((3R,5R,6S)-1-((S)-2-(tert-Butylsulfonyl)-1-cyclopropylethyl)-6-(4-chloro-3-fluorophenyl)-5-(3-chlorophenyl)-3-methyl-2-oxopiperidin-3-yl)acetamido)-2-methoxybenzoic acid], for which the “mRNA % of Positive Control (one donor)” value in the data set with CYP3A4 (0.1 μM) is given as −1.49%; in the data set with CYP3A4 (1 μM), 0.34%; in the data set with CYP3A4 (10 μM), 0.98%. Also, the “CYP3A4 mRNA induction” value with CYP3A4 is recorded as “does not show CYP3A4 mRNA induction”. Also, in the data set on CYP1A2, CYP2B6 or CYP3A4, the “Induction Assay Summary” value is “None”. Besides, the “Human hepatocyte CLint assay (μL/min/10^6 cells)” value in data set [1] (500 nM, pooled human hepatocytes 1 million cells/mL) is listed as 1.45 μL/min/10^6 cells. Moreover, the “human hepatocyte clearance (comparison)” value in data set [1] is on record as “lower human hepatocyte clearance than either of the compounds of Examples 1 or 4; also recorded: lower human hepatocyte clearance than any of Examples 1 to 4”. In data set [2], this compound yielded an intrinsic metabolic clearance (hepatocyte CLint) at 500 nM of 1.45 µL/min/1e6 cells.

Consider `CC(C)(C)S(=O)(=O)C[C@H](C1CC1)N1C(=O)[C@@](C)(CC(=O)Nc2ccccc2)C[C@H](c2cccc(Cl)c2)[C@H]1c1ccc(Cl)cc1` [Example 3, 2-((3R,5R,6S)-1-((S)-2-(tert-Butylsulfonyl)-1-cyclopropylethyl)-5-(3-chlorophenyl)-6-(4-chlorophenyl)-3-methyl-2-oxopiperidin-3-yl)-N-phenylacetamide], for which, in the data set on CYP3A4 (0.1 μM), the “mRNA % of Positive Control (Donor One)” value is listed as 1.71%, the “mRNA % of Positive Control (Donor Three)” value was 0.15% and the “mRNA % of Positive Control (Donor Two)” value was 4.95%. For the same compound, in the data set with CYP3A4 (1 μM), the “mRNA % of Positive Control (Donor One)” value was 17.15%, the “mRNA % of Positive Control (Donor Three)” value stood at 3.21% and the “mRNA % of Positive Control (Donor Two)” value is given as 10.38%. In the data set on CYP3A4 (10 μM), the “mRNA % of Positive Control (Donor One)” value stood at 37.77%, the “mRNA % of Positive Control (Donor Three)” value amounted to 37.60% and the “mRNA % of Positive Control (Donor Two)” value is 45.78%. Further, in the data set on CYP3A4, the “CYP3A4 mRNA induction” value is reported as “exhibit CYP3A4 mRNA induction”. The “Induction Assay Summary” value in the data set on CYP1A2, CYP2B6 or CYP3A4 is recorded as “CYP3A4”. Moreover, the “human hepatocyte clearance (comparison)” value in data set [1] was “further increases”. In data set [2], this compound yielded a hepatocyte CLint at 500 nM of 28 µL/min/1e6 cells.

With `CC(C)(C)S(=O)(=O)C[C@H](C1CC1)N1C(=O)[C@@](C)(CC(=O)O)C[C@H](c2cccc(Cl)c2)[C@H]1c1ccc(Cl)c(F)c1` [Example 4, 2-((3R,5R,6S)-1-((S)-2-(tert-Butylsulfonyl)-1-cyclopropylethyl)-6-(4-chloro-3-fluorophenyl)-5-(3-chlorophenyl)-3-methyl-2-oxopiperidin-3-yl)acetic acid], the figures for the “mRNA % of Positive Control (Donor One)” value in the data set with CYP3A4 (0.1 μM), in the data set with CYP3A4 (1 μM) and with CYP3A4 (10 μM) were 1.62%, 2.96% and 10.14%, respectively. Also, the “mRNA % of Positive Control (Donor Three)” value is recorded as 0.42% in the data set with CYP3A4 (0.1 μM), 0.47% in the data set with CYP3A4 (1 μM) and 3.07% in the data set on CYP3A4 (10 μM). Further, the “mRNA % of Positive Control (Donor Two)” value in the data set on CYP3A4 (0.1 μM) is recorded as 2.30%; with CYP3A4 (1 μM), 7.29%; in the data set on CYP3A4 (10 μM), 12.51%. For the same compound, in the data set on CYP1A2, CYP2B6 or CYP3A4, the “Induction Assay Summary” value is “None”. Also, the “human hepatocyte clearance (comparison)” value in data set [1] is on record as “higher human hepatocyte clearance than the compound of Example 1”. In data set [2], this compound registered an intrinsic clearance (hepatocyte CLint) at 500 nM of 26 µL/min/1e6 cells.

Consider `CC(C)(C)S(=O)(=O)C[C@H](C1CC1)N1C(=O)[C@@](C)(CC(N)=O)C[C@H](c2cccc(Cl)c2)[C@H]1c1ccc(Cl)cc1` [Example 2, 2-((3R,5R,6S)-1-((S)-2-(tert-Butylsulfonyl)-1-cyclopropylethyl)-5-(3-chlorophenyl)-6-(4-chlorophenyl)-3-methyl-2-oxopiperidin-3-yl)acetamide], for which the “human hepatocyte clearance (comparison)” value in data set [1] is “hepatocyte clearance increases”. This compound also had a hepatocyte CLint at 500 nM in data set [2] of 26 µL/min/1e6 cells.
